Key:
Assay in all cases: relative viability (nuclei count vs DMSO), 5 days (fraction); higher = more cells survive
[1] = compound: C=CC(=O)N1CCC[C@@H](n2nc(-c3ccc(Oc4ccccc4)cc3)c3c(N)ncnc32)C1 [Ibrutinib] + CC(C)C[C@H](NC(=O)[C@H](Cc1ccccc1)NC(=O)c1cnccn1)B(O)O [Bortezomib] (partner 0.002 µM)
Method in brief: (§1)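 Lung cancer cell lines were seeded in 1536-well plates and dosed by pin tool the next day, with either a single drug or a fixed anchor-drug dose combined with five library-drug doses (not always all listed) spaced in √10 steps. Five days later, one step fixed the cells and stained their nuclei (final 0.05% Triton X-100, 1% formaldehyde, 1 ug/ml Hoechst), and nuclei were counted on 4× images. Relative viability is the nuclei count in treated wells divided by the count in vehicle wells, and each value is the median of duplicate plates.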

[2] = compound: C=CC(=O)N1CCC[C@@H](n2nc(-c3ccc(Oc4ccccc4)cc3)c3c(N)ncnc32)C1 [Ibrutinib] + COc1cc2c(Oc3ccc(NC(=O)C4(C(=O)Nc5ccc(F)cc5)CC4)cc3F)ccnc2cc1OCCCN1CCOCC1 [Foretinib] (partner 0.25 µM)
Method in brief: as §1

[3] = compound: C=CC(=O)N1CCC[C@@H](n2nc(-c3ccc(Oc4ccccc4)cc3)c3c(N)ncnc32)C1 [Ibrutinib] + C[C@]1(O)C[C@@H](c2nc(-c3ccc4ccc(-c5ccccc5)nc4c3)c3c(N)nccn32)C1 [Linsitinib] (partner 1 µM)
Method in brief: as §1

[4] = compound: C=CC(=O)Nc1cc(-n2c(=O)ccc3cnc4ccc(-c5ccc(NS(C)(=O)=O)cc5)cc4c32)ccc1C [BMX-IN-1] + COc1cc2c(Oc3ccc(NC(=O)C4(C(=O)Nc5ccc(F)cc5)CC4)cc3F)ccnc2cc1OCCCN1CCOCC1 [Foretinib] (partner 0.25 µM)
Method in brief: as §1

Cell Line | relative viability ([1]; first compound 0.005 µM) | relative viability ([1]; first compound 0.01581 µM) | relative viability ([1]; first compound 0.05 µM) | relative viability ([1]; first compound 0.1581 µM) | relative viability ([1]; first compound 0.5 µM) | relative viability ([2]; first compound 0.005 µM) | relative viability ([2]; first compound 0.01581 µM) | relative viability ([2]; first compound 0.05 µM) | relative viability ([2]; first compound 0.1581 µM) | relative viability ([2]; first compound 0.5 µM) | relative viability ([3]; first compound 0.005 µM) | relative viability ([3]; first compound 0.01581 µM) | relative viability ([3]; first compound 0.05 µM) | relative viability ([3]; first compound 0.1581 µM) | relative viability ([3]; first compound 0.5 µM) | relative viability ([4]; first compound 0.02 µM) | relative viability ([4]; first compound 0.6325 µM) | relative viability ([4]; first compound 2 µM) | relative viability ([4]; first compound 0.2 µM)
LOU-NH91 | 0.509 | 0.553 | 0.513 | 0.476 | 0.478 | 0.861 | 0.769 | 0.679 | 0.913 | 0.568 | 0.834 | 0.733 | 0.739 | 0.892 | 0.492 | 0.938 | 1.01 | 0.942 | –
LU99A | 1.01 | 0.97 | 1.28 | 1.21 | 1.2 | 0.734 | 0.703 | 0.856 | 0.945 | 0.497 | 0.504 | 0.51 | 0.497 | 0.54 | 0.521 | 0.828 | 0.842 | 0.817 | 0.776
LXF-289 | 1.09 | 0.985 | 0.966 | 0.959 | 0.914 | 0.946 | 0.958 | 0.995 | 0.917 | 0.956 | 0.988 | 0.96 | 0.923 | 0.955 | 0.927 | 1.08 | 1.06 | 1 | 1.03
NCI-H358 | – | – | – | – | – | 0.294 | – | 0.35 | 0.551 | 0.291 | 0.563 | 0.394 | 0.355 | 0.743 | 0.28 | 0.855 | 0.887 | 0.701 | 0.777
NCI-H1395 | – | – | – | – | – | 0.913 | 0.922 | 1.02 | 0.982 | 0.907 | 1.16 | 0.968 | 0.995 | 1.45 | 1.13 | 1.1 | 0.949 | 0.908 | 0.968
NCI-H1623 | – | – | – | – | – | 0.8 | 0.701 | 0.568 | 0.692 | 0.289 | – | – | – | – | – | 0.853 | 0.798 | 0.788 | 1.02
NCI-H1650 | 0.22 | 0.216 | 0.23 | 0.203 | 0.22 | 1.01 | 0.793 | 0.934 | – | 0.732 | – | – | – | – | – | 1.05 | 1.2 | 1.17 | 1.46
NCI-H1792 | – | 0.984 | 1 | 0.85 | 0.93 | – | – | – | – | – | 0.553 | 0.44 | 0.506 | 0.608 | 0.53 | – | – | – | –
NCI-H1793 | – | – | – | – | – | – | 0.566 | 0.552 | 0.545 | 0.416 | – | 0.66 | 0.652 | 0.797 | 0.509 | 0.856 | 0.656 | 0.699 | 0.856
NCI-H1944 | – | – | – | – | – | 0.891 | 0.734 | 0.72 | 0.879 | 0.605 | 1.05 | 1.01 | 1.23 | 1.05 | 0.568 | 0.972 | 0.976 | 0.905 | 0.83
NCI-H2170 | – | – | – | – | – | 1.06 | 0.858 | 0.951 | 1.01 | 0.377 | – | – | – | – | – | 1.23 | 0.993 | 0.987 | 0.975
NCI-H2342 | – | – | – | – | – | 0.9 | 1 | 0.812 | 1.12 | 0.801 | – | – | – | – | – | 1.06 | 1.04 | 1.24 | 1.04
SW 900 | – | – | – | – | – | – | – | 0.861 | 0.683 | 0.836 | – | – | – | – | – | 0.815 | 0.757 | 0.802 | 0.944
